Earlier results on five compounds are cited in patent US20210061712A1, “COMPOSITE STRUCTURAL MATERIAL COMPOSITIONS RESISTANT TO BIODEGRADATION” (The University of British Columbia, priority 2018, published 2021).

Where two headings read alike, the source gives them in different places.

The test system of data set [1] is Desulfovibrio desulfricans strain. Particulars: pipe's internal wall coated with the oxide in epoxy.

For the compound `[Cu+2]` [Cu], the “activity of SRB species” value in the data set on SRB species (20 mg/L) was “reduced”.
Regarding silver oxide, in data set [1], the “bacterial corrosion of concrete pipe” value is “reduce the bacterial corrosion”.
Take `[Zn+2]` [Zn]: in the data set with SRB species (20 mg/L), the “activity of SRB species” value is “reduced”.
Consider `O=CCCCC=O` [glutaraldehyde], for which the “activity of SRB species” value in the data set with SRB species (10 mg/L) is on record as “reduced”.
As to `[Na+].[Na+].[O]=[W](=[O])([O-])[O-]` [sodium tungstate], in the data set on A. Thiooxidans cells, the “growth of A. thiooxidans cells” value is given as “completely inhibits the growth”.
